Experiments:
[1] = test system: Uncinula Necator; assay: Uncinula necator / grape / preventive (powdery mildew); assay type: in vivo; conditions: Erysiphe necator, 168 h, spray, grape seedlings cv. Gutedel, assessed 7 days after inoculation, read-out: inhibition of fungal infestation
Protocol: Uncinula Necator/Drape/Preventive (Action Against Powdery Mildew on Grape) 5 weeks old grape seedlings cv. Gutedel are treated with the formulated test compound in a spray chamber. One day after application grape plants are inoculated by shaking plants infected with grape powdery mildew above the test plants. After an incubation period of 7 days at 24° C./22° C. and 70% r. h. under a light regime of 14/10 h (light/dark) the disease incidence is assessed.

[2] = test system: Magnaporthe Grisea (Pyricularia oryzae); assay: whole plant or invertebrate; assay type: in vivo; conditions: 144 h, read-out: inhibition of fungal infestation
[3] = test system: Botrytis Cinerea; assay: Botrytis cinerea / tomato / preventive; assay type: in vivo; conditions: 72 h, spray, tomato plants cv. Roter Gnom, assessed 3 days after inoculation, read-out: inhibition of fungal infestation
Protocol: (§1) Botrytis Cinerea/Tomato/Preventive (Action Against Botrytis on Tomato) 4 weeks old tomato plants cv. Roter Gnom are treated with the formulated test compound in a spray chamber. Two days after application tomato plants are inoculated by spraying a spore suspension on the test plants. After an incubation period of 3 days at 20° C. and 95% r. h. in a greenhouse the disease incidence is assessed.

[4] = test system: Alternaria Solani; assay: Alternaria solani / tomato / preventive; assay type: in vivo; conditions: 96 h, spray, tomato plants cv. Roter Gnom, assessed 4 days after inoculation, read-out: inhibition of fungal infestation
Protocol: as §1, with “Alternaria Solani/Tomato/Preventive” for “Botrytis Cinerea/Tomato/Preventive”, “Alternaria” for “Botrytis”, “4” for “3”, “22° C./18°” for “20°”

[5] = test system: Septoria Tritici; assay: Septoria tritici / wheat / preventive (leaf spot); assay type: in vivo; conditions: Zymoseptoria tritici, spray, wheat plants cv. Riband, assessed 16-18 days after inoculation, read-out: inhibition of fungal infestation
Protocol: Septoria Tritici/Wheat/Preventive (Action Against Septoria Leaf Spot on Wheat) 2 weeks old wheat plants cv. Riband are treated with the formulated test compound in a spray chamber. One day after application wheat plants are inoculated by spraying a spore suspension (10^6 conidia/ml) on the test plants. After an incubation period of 1 day at 22° C./21° C. and 95% r. h. plants are kept at 22° C./21° C. and 70% r.h. in a greenhouse. The disease incidence is assessed 16-18 days after inoculation.

[6] = test system: Puccinia Recondita; assay: Puccinia recondita / wheat / preventive (brown rust); assay type: in vivo; conditions: 264 h, spray, wheat plants cv. Arina, assessed 11 days after inoculation, read-out: inhibition of fungal infestation
Protocol: Puccinia Recondita/Wheat/Preventive (Action Against Brown Rust on Wheat) 1 week old wheat plants cv. Arina are treated with the formulated test compound in a spray chamber. One day after application wheat plants are inoculated by spraying a spore suspension ([…] uredospores/ml) on the test plants. After an incubation period of 1 day at 20° C. and 95% r. h. plants are kept for 10 days 20° C./18° C. (day/night) and 60% r.h. in a greenhouse. The disease incidence is assessed 11 days after inoculation.

[7] = test system: Prenophora Teres (Helminthosporium Teres); assay: Pyrenophora teres / barley / preventive (net blotch); assay type: in vivo; conditions: 96 h, spray, barley plants cv. Regina, assessed 4 days after inoculation, read-out: inhibition of fungal infestation
Protocol: Prenophora Teres (Helminthosporium Teres)/Barley/Preventive (Action Against Net Blotch on Barley) 1-week-old barley plants cv. Regina are treated with the formulated test compound in a spray chamber. Two days after application barley plants are inoculated by spraying a spore suspension (2.6×10^4 conidia/ml) on the test plants. After an incubation period of 4 days at 20° C. and 95% r. h. the disease incidence is assessed.

| Compound | inhibition at 200 ppm [1] [%] | inhibition at 200 ppm [2] [%] | inhibition at 200 ppm [3] [%] | inhibition at 200 ppm [4] [%] | inhibition at 200 ppm [5] [%] | inhibition at 200 ppm [6] [%] | inhibition at 200 ppm [7] [%] | melting point [°C] |
| --- | --- | --- | --- | --- | --- | --- | --- | --- |
| Cc1nnc(F)c(-c2c(F)cc(F)cc2F)c1-c1ccc(Cl)cc1 [I.c.127, 4-(4-chlorophenyl)-6-fluoro-3-methyl-5-(2,4,6-trifluorophenyl)-pyridazine] | ≥ 80 | ≥ 80 | ≥ 80 | ≥ 80 | ≥ 80 | ≥ 80 | ≥ 80 | – |
| Cc1nnc(OCC(F)(F)F)c(-c2c(F)cc(F)cc2F)c1-c1ccc(Cl)cc1 [I.c.129, 4-(4-chlorophenyl)-3-methyl-6-(2,2,2-trifluoroethoxy)-5-(2,4,6-trifluorophenyl)-pyridazine] | ≥ 80 | – | – | ≥ 80 | ≥ 80 | – | – | 105 to 108 |
